Results on 1 compound are retold here after paper PMC5218480 (PLoS ONE, 2017).

This test relates to MV-4-11 cells. As to the kind of experiment: Gene expression microarray analysis (Affymetrix PrimeView) and GSEA. Particulars: ProbeSet 11754607_s_at; LIST B. It counts as cell-based, human.

Structures are written as SMILES.

`Nc1ccc(-c2cccs2)cc1NC(=O)c1ccc2c(c1)cc(C1CC1)n2CCN1CCOCC1` [ACY-1035]: the “RFU, HSP90B1 /// MIR3652” value is on record as 2548.05 RFU.
